ChEMBL document CHEMBL1141017, “Triterpene based compounds with potent anti-maturation activity against HIV-1” (Bioorg Med Chem Lett, 2008)
The source made the active and inactive calls. No cut-off for these calls is given here.

Columns and labels:
[1] = Therapeutic index, ratio of TC50 for human MT4 cells to IC50 for HIV1 3B; type: cell-based
[2] = Cytotoxicity against human MT4 cells after 4 days by cell viability assay; type: cell-based; settings: read-out: TC50
[3] = Cmax in Sprague-Dawley rat at 5 mg/kg, po; type: ADME, organism-based; design: dose 5 mg/kg, route oral; settings: in vivo
[4] = test system: Human immunodeficiency virus 1; assay: Antiviral activity against HIV1 NL4-3 infected in human MT4 cells assessed as cytoprotection against virus-induced cytopathic effect after 4 days by cell viability assay; type: functional, organism-based; settings: Human immunodeficiency virus 1, NL4-3, MT4, 96 h
[5] = Metabolic stability in human liver microsomes assessed as compound remaining after 40 mins; type: ADME, Microsome; settings: read-out: Stability
[6] = test system: Human immunodeficiency virus 1; assay: Antiviral activity against HIV1 3B replication in human PBMC assessed as reverse transcriptase activity after 7 days; type: functional, organism-based; settings: for IC50: Human immunodeficiency virus 1, 3B, 168 h
[7] = Metabolic stability in Sprague-Dawley rat liver microsomes assessed as compound remaining after 40 mins; type: ADME, Microsome; settings: read-out: Stability
[8] = Half life in Sprague-Dawley rat at 5 mg/kg, po; type: ADME, organism-based; design: dose 5 mg/kg, route oral; settings: in vivo
[9] = Therapeutic index, ratio of TC50 for human MT4 cells to EC50 for HIV1 NL43; type: cell-based
[10] = (§1) Cytotoxicity against human PBMC by cell viability assay; type: cell-based; settings: read-out: TC50 (the source's name)
[11] = Tmax in Sprague-Dawley rat at 5 mg/kg, po; type: ADME, organism-based; design: dose 5 mg/kg, route oral; settings: in vivo
[12] = AUC (0 to infinity) in Sprague-Dawley rat at 5 mg/kg, po; type: ADME, organism-based; design: time infinity, dose 5 mg/kg, route oral; settings: plasma
PBMC = assay: as §1; type: cell-based
[13] = Oral bioavailability in Sprague-Dawley rat at 5 mg/kg; type: ADME, organism-based; settings: in vivo
[14] = Cmax in Sprague-Dawley rat at 7.5 mg/kg, po; type: ADME, organism-based; design: dose 7.5 mg/kg, route oral; settings: in vivo
[15] = Cmax in Sprague-Dawley rat at 10 mg/kg, po; type: ADME, organism-based; design: dose 10 mg/kg, route oral; settings: in vivo
[16] = AUC (0 to infinity) in Sprague-Dawley rat at 10 mg/kg, po; type: ADME, organism-based; design: time infinity, dose 10 mg/kg, route oral; settings: plasma
[17] = Half life in Sprague-Dawley rat at 7.5 mg/kg, po; type: ADME, organism-based; design: dose 7.5 mg/kg, route oral; settings: in vivo
[18] = Tmax in Sprague-Dawley rat at 10 mg/kg, po; type: ADME, organism-based; design: dose 10 mg/kg, route oral; settings: in vivo
[19] = Tmax in Sprague-Dawley rat at 7.5 mg/kg, po; type: ADME, organism-based; design: dose 7.5 mg/kg, route oral; settings: in vivo
[20] = Oral bioavailability in Sprague-Dawley rat at 7.5 mg/kg; type: ADME, organism-based; settings: in vivo
[21] = AUC (0 to infinity) in Sprague-Dawley rat at 7.5 mg/kg, po; type: ADME, organism-based; design: time infinity, dose 7.5 mg/kg, route oral; settings: plasma
[22] = Oral bioavailability in Sprague-Dawley rat at 10 mg/kg; type: ADME, organism-based; settings: in vivo
[23] = Half life in Sprague-Dawley rat at 10 mg/kg, po; type: ADME, organism-based; design: dose 10 mg/kg, route oral; settings: in vivo

`C=C(C)[C@@H]1CC[C@]2(C(=O)NCc3ccccc3OC)CC[C@]3(C)[C@H](CC[C@@H]4[C@@]5(C)CC[C@H](OC(=O)CC(C)(C)C(=O)O)C(C)(C)[C@@H]5CC[C@]43C)[C@@H]12` showed a selectivity ratio [1] greater than 400, a CC50 at 96 h [2] greater than 10000 nM and a Cmax [3] of 40 nM. For the same molecule, the EC50 [4] was 24 nM, the remaining at 40 min [5] was 10% and the IC50 [6] was 7 nM. For the same molecule, the remaining at 40 min [7] was 10%, the half-life [8] was 2 h and the selectivity ratio [9] was greater than 400. The CC50 [10] was greater than 10000 nM, the Tmax [11] was 2 h and the AUC(0-inf) [12] was 114 ng·h/mL.

`C=C(C)[C@@H]1CC[C@]2(C(=O)NCc3ccc(OC(F)(F)F)cc3)CC[C@]3(C)[C@H](CC[C@@H]4[C@@]5(C)CC[C@H](OC(=O)CC(C)(C)C(=O)O)C(C)(C)[C@@H]5CC[C@]43C)[C@@H]12` showed a selectivity ratio [1] greater than 400, a CC50 at 96 h [2] of 1000 nM and an EC50 [4] of 190 nM. The remaining at 40 min [5] was 10%, the Activity [6] was “inactive” and the remaining at 40 min [7] was 10%. The selectivity ratio [9] was greater than 400 and the TC50 (PBMC) was “Not Active”.

Molecule `C=C(C)[C@@H]1CC[C@]2(C(=O)NCc3ccc(Cl)cc3)CC[C@]3(C)[C@H](CC[C@@H]4[C@@]5(C)CC[C@H](OC(=O)CC(C)(C)C(=O)O)C(C)(C)[C@@H]5CC[C@]43C)[C@@H]12` has a bioavailability [13] of 3.91%, a selectivity ratio [1] greater than 400 and a CC50 at 96 h [2] greater than 10000 nM. For the same molecule, the Cmax [3] was 270 nM, the EC50 [4] was 17.9 nM and the remaining at 40 min [5] was greater than 60%. For the same molecule, the IC50 [6] was 27 nM, the remaining at 40 min [7] was greater than 60% and the half-life [8] was 8 h. For the same molecule, the selectivity ratio [9] was greater than 400, the CC50 [10] was greater than 10000 nM and the Tmax [11] was 2 h. The AUC(0-inf) [12] was 1340 ng·h/mL.

In the case of `C=C(C)[C@@H]1CC[C@]2(C(=O)NCCc3ccc(OC)cc3)CC[C@]3(C)[C@H](CC[C@@H]4[C@@]5(C)CC[C@H](OC(=O)CC(C)(C)C(=O)O)C(C)(C)[C@@H]5CC[C@]43C)[C@@H]12`, the bioavailability [13] is reported as 1.84%, the CC50 at 96 h [2] is reported as greater than 10000 nM and the Cmax [3] is reported as 40 nM. The EC50 [4] was 12 nM, the IC50 [6] was 60 nM and the half-life [8] was 4.8 h. It also gave a CC50 [10] of 1000 nM, a Tmax [11] of 2 h and an AUC(0-inf) [12] of 245 ng·h/mL.

With `C=C(C)[C@@H]1CC[C@]2(C(=O)NCc3ccccc3C(=O)O)CC[C@]3(C)[C@H](CC[C@@H]4[C@@]5(C)CC[C@H](OC(=O)CC(C)(C)C(=O)O)C(C)(C)[C@@H]5CC[C@]43C)[C@@H]12` the bioavailability [13] was 56.4%, the selectivity ratio [1] was greater than 400 and the CC50 at 96 h [2] was 4500 nM. It also gave a Cmax [3] of 580 nM, an EC50 [4] of 6 nM and a remaining at 40 min [5] greater than 60%. For the same molecule, the IC50 [6] was 16 nM, the remaining at 40 min [7] was greater than 60% and the half-life [8] was 2 h. For the same molecule, the selectivity ratio [9] was greater than 400, the CC50 [10] was 9700 nM and the Tmax [11] was 3.2 h. It also gave an AUC(0-inf) [12] of 1700 ng·h/mL.

In the case of `C=C(C)[C@@H]1CC[C@]2(C(=O)NCc3cccc(OC(F)(F)F)c3)CC[C@]3(C)[C@H](CC[C@@H]4[C@@]5(C)CC[C@H](OC(=O)CC(C)(C)C(=O)O)C(C)(C)[C@@H]5CC[C@]43C)[C@@H]12`, the selectivity ratio [1] is reported as greater than 400, the CC50 at 96 h [2] is reported as 5200 nM and the EC50 [4] is reported as 110 nM. The remaining at 40 min [5] was 10%, the Activity [6] was “inactive” and the remaining at 40 min [7] was 10%. The selectivity ratio [9] was greater than 400 and the TC50 (PBMC) was “Not Active”.

Work on `C=C(C)[C@@H]1CC[C@]2(C(=O)NCc3ccc(F)cc3C(=O)O)CC[C@]3(C)[C@H](CC[C@@H]4[C@@]5(C)CC[C@H](OC(=O)CC(C)(C)C(=O)O)C(C)(C)[C@@H]5CC[C@]43C)[C@@H]12` yielded a selectivity ratio [1] greater than 400, a CC50 at 96 h [2] of 3200 nM and an EC50 [4] of 52 nM. It also gave a remaining at 40 min [5] of 10%, an IC50 [6] of 4 nM and a remaining at 40 min [7] of 10%. For the same molecule, the selectivity ratio [9] was greater than 400 and the CC50 [10] was 1500 nM.

For `C=C(C)[C@@H]1CC[C@]2(C(=O)NCc3ccc(OC)cc3)CC[C@]3(C)[C@H](CC[C@@H]4[C@@]5(C)CC[C@H](OC(=O)CC(C)(C)C(=O)O)C(C)(C)[C@@H]5CC[C@]43C)[C@@H]12`, the selectivity ratio [1] was greater than 400, the CC50 at 96 h [2] was greater than 10000 nM and the EC50 [4] was 26 nM. For the same molecule, the remaining at 40 min [5] was 10%, the IC50 [6] was 23.5 nM and the remaining at 40 min [7] was 10%. It also gave a selectivity ratio [9] greater than 400 and a CC50 [10] greater than 10000 nM.

In the case of `C=C(C)[C@@H]1CC[C@]2(C(=O)NCCc3ccccc3C(=O)NCCC(=O)O)CC[C@]3(C)[C@H](CC[C@@H]4[C@@]5(C)CC[C@H](OC(=O)CC(C)(C)C(=O)O)C(C)(C)[C@@H]5CC[C@]43C)[C@@H]12`, the Cmax [14] is reported as 860 nM, the CC50 at 96 h [2] is reported as 9600 nM and the EC50 [4] is reported as 3.1 nM. It also gave a remaining at 40 min [5] greater than 40%, a Cmax [15] of 70 nM and an AUC(0-inf) [16] of 1260 ng·h/mL. The half-life [17] was 4.54 h, the IC50 [6] was 9.4 nM and the Tmax [18] was 4 h. For the same molecule, the remaining at 40 min [7] was greater than 40%, the Tmax [19] was 1 h and the bioavailability [20] was 15.5%. The CC50 [10] was 11000 nM, the AUC(0-inf) [21] was 1650 ng·h/mL and the bioavailability [22] was 1.6%. For the same molecule, the half-life [23] was 7.8 h.

`C=C(C)[C@@H]1CC[C@]2(C(=O)NCc3ccc4c(c3)OCO4)CC[C@]3(C)[C@H](CC[C@@H]4[C@@]5(C)CC[C@H](OC(=O)CC(C)(C)C(=O)O)C(C)(C)[C@@H]5CC[C@]43C)[C@@H]12` showed a selectivity ratio [1] greater than 400, a CC50 at 96 h [2] greater than 10000 nM and an EC50 [4] of 23 nM. For the same molecule, the remaining at 40 min [5] was 10%, the IC50 [6] was 9 nM and the remaining at 40 min [7] was 10%. For the same molecule, the selectivity ratio [9] was greater than 400 and the CC50 [10] was greater than 10000 nM.
